# Measurements from patent US20210355103A1, “PARG INHIBITORS AND METHOD OF USE THEREOF” (City of Hope, priority 2018, published 2021).
# Experiments:
# PARG = molecular target: T1, PARG (Homo sapiens, UniProt Q86W56); experiment: PAR digestion assay (dot blotting) for PARG inhibition; assay type: biochemical; conditions: 0.25 nM PARG incubated with 10 μM PAR for 20 min at room temperature; dot blotting with anti-PAR antibody
# T1 construct: made in house; host or cells: Sf9 insect cells
# Protocol: Compounds (FIG. 4) were synthesized to examine the efficacy of PARG inhibition by dot blotting assay (Example 5). 0.25 nM PARG was incubated with 10 μM PAR for 20 min at room temperature with or without inhibitors. PAR-digestion results were analyzed using dot blotting with anti-PAR antibody.
# The array includes compounds in FIG. 4 (PG002 (“002”), PG006 (“006”), PG008 (“008”), PG010 (“010”), and PG021(“021”)), PC (positive control, PAR only), NC (negative control, no inhibitor), and COH34 (“34”, positive control for PARG inhibition). In FIG. 5A, 0.3X means 3-fold dilution.
# Recombinant PARG protein from Sf9 cells were incubated with PAR purified from FhCh-treated PARG-knock down HCT116 cells (10 μM, calculated as the ADP-ribose unit) and DMSO (Negative control, NC) or small molecules for 20 minutes at room temperature. Positive control (PC) only contains PAR in PBS. Samples (1 μl) were spotted onto a nitrocellulose membrane. Then, the membrane was backed for 30 minutes at 60° C. and blocked with TBST buffer (0.15 M NaCl, 0.01 M Tris-HCl at pH 7.4, 0.1% Tween 20) supplemented with 5% milk for 30 minutes at room temperature. After washing with TBST, the membrane was incubated with monoclonal PAR antibody (Trevigen, Inc.) overnight at 4° C. Following standard Western blotting method, the signals were visualized by chemiluminescent detection (FIG. 5B).
# [1] = system: HCC1937 (BRCA1-mutant breast cancer cells); experiment: Colony formation (cell viability) assay in HCC1937 cells; assay type: cell-based; conditions: HCC1937, 1 μM PARG inhibitor, 14-day culture, colonies >50 cells counted
# Protocol: To examine the efficacy of PG compounds in DNA repair-defective cancer cells, colony formation assays were performed using HCC1937 (BRCA1-mutant breast cancer cells) with or without 1 μM PARG inhibitors (PG002, PG006, PG008, and PG010). COH34 was used as a positive control. HCC1937 (˜1000 cells) were seeded into six-well plates and then treated by various doses of PARG inhibitors. After a 14-day culture, the viable cells were fixed by methanol and stained with crystal violet. The number of colonies (>50 cells for each colony) was calculated. The results were summarized in the histograms (FIG. 7).
# T1 sequence (Q86W56 whole entry): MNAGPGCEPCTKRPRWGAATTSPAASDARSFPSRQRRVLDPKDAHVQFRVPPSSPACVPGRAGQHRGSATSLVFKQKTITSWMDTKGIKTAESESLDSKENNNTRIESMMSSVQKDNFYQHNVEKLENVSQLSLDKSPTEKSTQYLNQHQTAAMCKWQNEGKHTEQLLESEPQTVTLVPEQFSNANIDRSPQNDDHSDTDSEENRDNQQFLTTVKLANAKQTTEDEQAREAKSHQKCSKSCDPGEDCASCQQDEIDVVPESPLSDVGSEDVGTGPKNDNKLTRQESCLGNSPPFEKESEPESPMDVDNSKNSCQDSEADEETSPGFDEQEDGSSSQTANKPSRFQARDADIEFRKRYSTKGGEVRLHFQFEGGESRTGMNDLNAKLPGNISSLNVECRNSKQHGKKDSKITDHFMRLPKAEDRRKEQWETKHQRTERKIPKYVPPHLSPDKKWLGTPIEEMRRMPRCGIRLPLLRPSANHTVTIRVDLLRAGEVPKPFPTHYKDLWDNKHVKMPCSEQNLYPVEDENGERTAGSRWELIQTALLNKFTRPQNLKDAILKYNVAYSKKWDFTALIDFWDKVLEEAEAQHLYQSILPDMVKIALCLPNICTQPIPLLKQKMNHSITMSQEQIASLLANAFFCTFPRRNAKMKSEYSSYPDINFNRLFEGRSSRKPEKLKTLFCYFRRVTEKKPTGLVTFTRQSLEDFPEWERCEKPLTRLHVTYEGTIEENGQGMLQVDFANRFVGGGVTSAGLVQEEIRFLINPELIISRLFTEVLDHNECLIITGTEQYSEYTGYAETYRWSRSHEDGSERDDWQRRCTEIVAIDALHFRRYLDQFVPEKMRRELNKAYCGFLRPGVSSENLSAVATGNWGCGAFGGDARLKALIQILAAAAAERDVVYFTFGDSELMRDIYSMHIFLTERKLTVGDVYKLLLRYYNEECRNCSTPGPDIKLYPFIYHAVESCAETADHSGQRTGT
SMILES,inhibitory activity for PARG (PARG),death of the tumor cells (colony formation) [1]
"O=C(N/N=C/c1c(O)ccc2cccnc12)c1ccc(Cl)cc1 [PG010, 4-chloro-N′-[(1E)-(7-hydroxyquinolin-8-yl)methylidene]benzohydrazide]",good inhibitory activity,increased death of the tumor cells
"O=C(N/N=C/c1c(O)cnc2ccccc12)c1ccc(Cl)cc1 [PG008, 4-chloro-N-[(1E)-(3-hydroxyquinolin-4-yl)methylidene]benzohydrazide]",good inhibitory activity,increased death of the tumor cells
"O=S(=O)(N/N=C/c1c(O)ccc2ccccc12)c1ccc(Cl)cn1 [PG021, 5-chloro-N′-[(1E)-(2-hydroxynaphthalen-1-yl)methylidene]pyridine-2-sulfonohydrazide]",good inhibitory activity,–
"O=C(N/N=C/c1c(O)ccc2ccccc12)c1ccc(Cl)cn1 [PG002, 5-chloro-N′-[(1E)-(2-hydroxynaphthalen-1-yl)methylidene]pyridine-2-carbohydrazide]",good inhibitory activity,increased death of the tumor cells
"O=C(N/N=C/c1nccc2ccccc12)c1ccc(Cl)cc1 [PG006, 4-chloro-N′-[(1E)-(isoquinolin-1-yl)methylidene]benzohydrazide]",good inhibitory activity,increased death of the tumor cells
